pIC50: −log10 of the molar value. Where only a bound is given, the exact number is not on record here.

One may read the pIC50 as −log10 of the IC50, conventionally taken in molar units.

human, KCNT1, sequence (Q5JUK3 whole entry): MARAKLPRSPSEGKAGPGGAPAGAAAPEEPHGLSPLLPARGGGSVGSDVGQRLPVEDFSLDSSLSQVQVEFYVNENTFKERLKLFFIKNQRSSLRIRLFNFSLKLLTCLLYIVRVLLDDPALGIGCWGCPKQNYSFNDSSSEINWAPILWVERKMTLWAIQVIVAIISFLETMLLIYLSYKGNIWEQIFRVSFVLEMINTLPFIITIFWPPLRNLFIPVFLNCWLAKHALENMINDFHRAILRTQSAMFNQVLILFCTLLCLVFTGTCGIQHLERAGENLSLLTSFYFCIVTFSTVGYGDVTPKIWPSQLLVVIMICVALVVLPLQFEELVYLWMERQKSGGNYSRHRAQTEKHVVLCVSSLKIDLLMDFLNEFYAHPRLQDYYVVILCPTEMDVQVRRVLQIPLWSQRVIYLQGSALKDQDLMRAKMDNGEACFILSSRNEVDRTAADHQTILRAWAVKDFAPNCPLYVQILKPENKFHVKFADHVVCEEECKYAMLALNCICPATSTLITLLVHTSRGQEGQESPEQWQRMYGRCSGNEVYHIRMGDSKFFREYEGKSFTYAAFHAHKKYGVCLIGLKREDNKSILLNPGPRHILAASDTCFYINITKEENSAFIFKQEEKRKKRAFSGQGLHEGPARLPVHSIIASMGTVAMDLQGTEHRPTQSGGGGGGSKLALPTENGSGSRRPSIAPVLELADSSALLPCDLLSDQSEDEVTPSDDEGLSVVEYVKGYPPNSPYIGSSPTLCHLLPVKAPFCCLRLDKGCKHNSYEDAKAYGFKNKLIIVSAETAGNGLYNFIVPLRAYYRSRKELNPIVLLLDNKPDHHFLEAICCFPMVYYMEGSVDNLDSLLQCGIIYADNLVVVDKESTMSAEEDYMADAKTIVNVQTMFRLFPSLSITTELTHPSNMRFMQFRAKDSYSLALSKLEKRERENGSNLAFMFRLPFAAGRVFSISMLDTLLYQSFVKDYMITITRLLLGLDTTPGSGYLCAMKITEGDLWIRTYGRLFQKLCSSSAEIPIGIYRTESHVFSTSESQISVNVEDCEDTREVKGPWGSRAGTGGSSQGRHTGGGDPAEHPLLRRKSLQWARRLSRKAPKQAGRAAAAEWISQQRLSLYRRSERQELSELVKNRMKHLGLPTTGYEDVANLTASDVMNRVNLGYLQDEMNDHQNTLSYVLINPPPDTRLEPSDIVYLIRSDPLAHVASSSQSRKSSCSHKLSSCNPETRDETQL

This test has as its target human, KCNT1 (Homo sapiens (Human), UniProt Q5JUK3). As to the kind of experiment: FLIPR Tl/K Flux Assay. The format is cell-based. The note with it: HEK293 cells stably expressing human KCNT1; Tl+ flux stimulated with EC80 of agonist Loxapine. In short, it runs like this:
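HEK293 cells stably expressing human KCNT1 were loaded with FLIPR potassium dye in HEPES/HBSS pH 7.4 with 5 mM probenecid, 1 h at 25 °C, then given test compound for 30 min at 25 °C. Tl+ flux was triggered with chloride-free buffer containing Tl+ and EC80 loxapine and read 160 s. IC50 came from Hill fits of % inhibition.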
Turning to `COc1cc(C(=O)NC2CCCc3nn(-c4ccnc(C(F)(F)F)c4)cc32)n(C)n1` (racemic) [Compound I-21, (rac)-3-Methoxy-1-methyl-N-(2-(2-(trifluoromethyl)pyridin-4-yl)-4,5,6,7-tetrahydro-2H-indazol-4-yl)-1H-pyrazole-5-carboxamide], the pIC50 is less than 6.00.

For the compound `COc1cc(-c2cc3n(n2)CC[C@@H]3NC(=O)c2nc(C(F)(F)F)nn2C)ccn1` [Compound I-237a, (S)-N-(2-(2-Methoxypyridin-4-yl)-5,6-dihydro-4H-pyrrolo[1,2-b]pyrazol-4-yl)-1-methyl-3-(trifluoromethyl)-1H-1,2,4-triazole-5-carboxamide], the pIC50 is more than 6.60.

`COc1cc(-c2cc3n(n2)CC[C@@H]3NC(=O)c2cc(F)cc(Cl)c2)ccn1` [Compound I-253a, (S)-3-Chloro-5-fluoro-N-(2-(2-methoxypyridin-4-yl)-5,6-dihydro-4H-pyrrolo[1,2-b]pyrazol-4-yl)benzamide] gave a pIC50 of more than 6.60.

`O=C(N[C@H]1CCn2nc(-c3ccnc(C(F)(F)F)c3)cc21)C12CC(Cl)(C1)C2` [Compound I-490a, (S)-3-Chloro-N-(2-(2-(trifluoromethyl)pyridin-4-yl)-5,6-dihydro-4H-pyrrolo[1,2-b]pyrazol-4-yl)bicyclo[1.1.1]pentane-1-carboxamide] gave a pIC50 of more than 6.60. Next, `Cn1nc(C(F)(F)F)cc1C(=O)N[C@H]1CCCc2nc(-c3ccnc(C4CC4)c3)oc21` [Compound I-180a, (S)-N-(2-(2-Cyclopropylpyridin-4-yl)-4,5,6,7-tetrahydrobenzo[d]oxazol-7-yl)-1-methyl-3-(trifluoromethyl)-1H-pyrazole-5-carboxamide]: more than 6.60; `COc1cc(C(=O)N[C@H]2CCCCn3nc(-c4cc(C(F)(F)F)ncc4F)cc32)ccn1` [Compound I-194a, (S)-N-(2-(5-Fluoro-2-(trifluoromethyl)pyridin-4-yl)-5,6,7,8-tetrahydro-4H-pyrazolo[1,5-a]azepin-4-yl)-2-methoxyisonicotinamide]: more than 6.60. In turn, `O=C(N[C@H]1CCn2nc(-c3cc(C(F)(F)F)ncc3F)cc21)C12CC(CF)(C1)C2` [Compound I-540a, (S)-N-(2-(5-Fluoro-2-(trifluoromethyl)pyridin-4-yl)-5,6-dihydro-4H-pyrrolo[1,2-b]pyrazol-4-yl)-3-(fluoromethyl)bicyclo[1.1.1]pentane-1-carboxamide] gave a pIC50 of more than 6.60.

Consider `Cn1nc(C(F)(F)F)cc1C(=O)N[C@H]1CCc2nn(-c3ccnc(C4(C)CC4)c3)cc21` [Compound I-75a, (S)-1-Methyl-N-(2-(2-(1-methylcyclopropyl)pyridin-4-yl)-2,4,5,6-tetrahydrocyclopenta[c]pyrazol-4-yl)-3-(trifluoromethyl)-1H-pyrazole-5-carboxamide], for which the pIC50 is more than 6.60. The compound `COc1cc(-c2cc3n(n2)CCCC[C@@H]3NC(=O)c2ccc(F)c(C#N)c2)ccn1` [Compound I-256a, (S)-3-Cyano-4-fluoro-N-(2-(2-methoxypyridin-4-yl)-5,6,7,8-tetrahydro-4H-pyrazolo[1,5-a]azepin-4-yl)benzamide] had a pIC50 of more than 6.60. `Cn1ncnc1C(=O)N[C@H]1CCn2nc(-c3ccnc(C(F)(F)F)c3)cc21` [Compound I-225a] showed a pIC50 of less than 6.00.

For `N#Cc1cccc(C(=O)N[C@H]2CCCc3oc(-c4ccnc(C5CC5)c4)nc32)c1` [Compound I-232a, (S)-3-Cyano-N-(2-(2-cyclopropylpyridin-4-yl)-4,5,6,7-tetrahydrobenzo[d]oxazol-4-yl)benzamide], the negative logarithm of the IC50 (pIC50) is more than 6.60. Next, `CCc1cc(-n2cc3c(n2)CC[C@@H]3NC(=O)c2cc(C(F)(F)F)nn2C)ccn1` [Compound I-69a]: more than 6.60; `N#Cc1cccc(C(=O)NC2CCCCC3NC(c4ccnc(C(F)(F)F)c4)=NC23)c1` (stereo not shown) [Compound I-463]: less than 6.00.

The values are drawn from patent US20250313548A1 (Actio Biosciences, Inc., priority 2023, published 2025).
